We go through 14 compounds from USRE45173E1, “Inhibitors of CYP 17” (Novartis AG, priority 2009, dated 2014).

Molecules are shown by their SMILES.

Test [1] has as its target recombinant human CYP17 enzyme (Homo sapiens (Human), UniProt P05093). Kind of test: Cytochrome P450, 17-20 lyase (CYP17-lyase) assay, tritiated acetic acid release from 17-α-hydroxy pregnenolone [21-3H]. Particulars: human CYP17, substrate 0.25 μM; read-out: Lyase IC 50 nM Human/Rat (Human). The format is biochemical. In a few lines:
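Membranes of cells expressing human CYP17 incubated 90 min at room temperature with [21-3H]17α-hydroxypregnenolone and 4.2 mM NADPH in 50 mM phosphate pH 7.5. Released tritiated acetic acid separated from steroids by charcoal and counted by scintillation; IC50 from sigmoidal fit of % inhibition.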

A further test concerns the target rat CYP17 lyase (Rattus norvegicus (Rat), UniProt P11715). Kind of test: rat CYP 17 Lyase model, rat testes microsomes as the source. It is filed as biochemical. Particulars: for inhibition at 0.1 µM: 100 nM compound, read-out: rCYP17 Lyase % Inh @ 100 nM; for IC50: rat testes microsomes, substrate 0.5 μM, read-out: Lyase IC 50 nM Human/Rat (Rat). The procedure:
For routine screening, the assay was set up with 16 μg of enzyme in 50 μL reaction volume. 17α-hydroxy pregnenolone [21-3H] was added to a final concentration of 0.25 μM. NADPH is used at a final concentration of 4.2 mM. Total reaction volume was made up to 50 μL with 50 mM Phosphate buffer pH 7.5. The reaction mixture was incubated at room temperature for 90 minutes with gentle shaking. The reaction was stopped by the addition of 100 μL of buffer. 500 μL of 5% freshly prepared activated charcoal was added to the solution and mixed well by vortexing. The samples were centrifuged at 17568×g for 5 minutes. (14000 rpm). The supernatant was carefully transferred to fresh tube and 1.3 mL of scintillation fluid was added, mixed by vortexing.
The radioactivity was measured in a 1450 MicroBeta TriLux™ scintillation counter from Wallac-Perkin Elmer®, USA. The measurements were carried out in 2.0 mL Eppendorforf™ tubes. Each tube was counted for 1 minute. The amount of tritiated acetic acid released is proportional to the lyase activity. Percent lyase activity in presence of inhibitor was calculated using the formula given below.
[formula] • Sample: Enzyme reaction in presence of inhibitor. • Positive control: Enzyme reaction without inhibitor but containing DMSO at 1% final concentration. • Blank-Contains all reagents except enzyme. % Inhibition=100%−% Lyase activity
For IC50 determination, the % inhibition was plotted as a function of inhibitor concentration. The data was fitted to sigmoidal equation using Graphpad Prism® software IV to generate IC50 values.
For the rat CYP 17 Lyase Model:
The same procedure described above was used but using rat testes microsomes as the source and with a substrate concentration of 0.5 μM.

Sequence of rat CYP17 lyase (P11715 whole entry): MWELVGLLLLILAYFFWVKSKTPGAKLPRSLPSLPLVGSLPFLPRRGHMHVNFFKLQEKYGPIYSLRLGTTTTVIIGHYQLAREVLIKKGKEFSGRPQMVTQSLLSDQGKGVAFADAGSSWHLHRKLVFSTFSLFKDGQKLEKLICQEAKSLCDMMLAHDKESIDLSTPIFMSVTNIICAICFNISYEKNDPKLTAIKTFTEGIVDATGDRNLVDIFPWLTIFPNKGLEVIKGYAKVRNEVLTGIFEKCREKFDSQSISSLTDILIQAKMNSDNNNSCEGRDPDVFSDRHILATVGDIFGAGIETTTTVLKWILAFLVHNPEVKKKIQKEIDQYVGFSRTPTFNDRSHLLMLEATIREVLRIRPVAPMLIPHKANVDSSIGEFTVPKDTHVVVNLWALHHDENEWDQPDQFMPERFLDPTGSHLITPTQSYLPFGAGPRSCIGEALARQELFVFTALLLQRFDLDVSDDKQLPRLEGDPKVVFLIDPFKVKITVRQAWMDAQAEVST
Sequence of recombinant human CYP17 enzyme (P05093 whole entry): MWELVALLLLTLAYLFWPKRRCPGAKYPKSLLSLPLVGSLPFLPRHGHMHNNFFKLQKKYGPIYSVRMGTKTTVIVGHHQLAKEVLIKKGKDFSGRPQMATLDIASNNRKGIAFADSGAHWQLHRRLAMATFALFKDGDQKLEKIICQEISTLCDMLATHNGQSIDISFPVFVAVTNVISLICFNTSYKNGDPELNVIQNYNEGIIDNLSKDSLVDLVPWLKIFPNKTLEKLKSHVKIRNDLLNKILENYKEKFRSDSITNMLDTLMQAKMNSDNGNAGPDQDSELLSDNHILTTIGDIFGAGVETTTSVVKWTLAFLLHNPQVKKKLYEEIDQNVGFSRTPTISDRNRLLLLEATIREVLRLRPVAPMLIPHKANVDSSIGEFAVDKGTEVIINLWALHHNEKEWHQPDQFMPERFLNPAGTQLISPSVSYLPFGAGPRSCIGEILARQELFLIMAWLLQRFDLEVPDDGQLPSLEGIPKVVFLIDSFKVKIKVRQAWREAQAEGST

Take `Cc1ccncc1N1CCN(c2ccc(F)cc2)C1=O` [Example 18A, 1-(4-Fluoro-phenyl)-3-(4-methyl-pyridin-3-yl)-imidazolidin-2-one]: the IC50 in test [1] was found to be 76 nM; at rat CYP17 lyase it was 12 nM. Further, at rat CYP17 lyase, the inhibition at 0.1 µM amounted to 88%.

Consider `Cc1ccncc1N1CCN(c2cnc3ccccc3c2)C1=O` [Example 24A, 1-(4-Methyl-pyridin-3-yl)-3-quinolin-3-yl-imidazolidin-2-one], for which, in test [1], the IC50 came out at 72 nM. For the same compound, at rat CYP17 lyase, the inhibition at 0.1 µM was 98%.

Take `Cc1ccncc1N1CCN(c2cc3ccccc3s2)C1=O` [Example 26A, 1-Benzo[b]thiophen-2-yl-3-(4-methyl-pyridin-3-yl)-imidazolidin-2-one]: the IC50 in test [1] was found to be 15 nM. Moreover, the inhibition at 0.1 µM at rat CYP17 lyase was 100%.

In the case of `Cc1ccncc1N1CCN(c2ccc3sccc3c2)C1=O` [Example 27A, 1-Benzo[b]thiophen-5-yl-3-(4-methyl-pyridin-3-yl)-imidazolidin-2-one], in test [1], the IC50 is 24 nM. Besides, at rat CYP17 lyase, the inhibition at 0.1 µM amounted to 101%.

As to `Cc1ccncc1N1CCN(c2ccc3[nH]ncc3c2)C1=O` [Example 28A, 1-(1H-Indazol-5-yl)-3-(4-methyl-pyridin-3-yl)-imidazolidin-2-one], the IC50 in test [1] was 4 nM. Further, at rat CYP17 lyase, the inhibition at 0.1 µM was determined as 61% and the IC50 was determined as 52 nM.

Consider `Cc1ccncc1N1CCN(c2ccc3occ(C)c3c2)C1=O` [Example 29A, 1-(3-Methyl-benzofuran-5-yl)-3-(4-methyl-pyridin-3-yl)-imidazolidin-2-one], for which the IC50 in test [1] was 3 nM. At rat CYP17 lyase, the inhibition at 0.1 µM turned out to be 98%.

Turning to `Cc1ccncc1N1CCN(c2ccsc2)C1=O` [Example 31A, 1-(4-Methyl-pyridin-3-yl)-3-thiophen-3-yl-imidazolidin-2-one], the IC50 in test [1] is 108 nM. Moreover, the inhibition at 0.1 µM at rat CYP17 lyase is 74%.

On to `Cc1ccncc1N1CCN(c2ccc(Cl)s2)C1=O` [Example 41A, 1-(5-Chloro-thiophen-2-yl)-3-(4-methyl-pyridin-3-yl)-imidazolidin-2-one], for which the IC50 came out at 10 nM in test [1] and 3 nM at rat CYP17 lyase.

Turning to `Cc1ccncc1N1CCN(c2ccc3ncccc3c2)C1=O` [Example 52A, 1-(4-Methyl-pyridin-3-yl)-3-quinolin-6-yl-imidazolidin-2-one], the IC50 is 96 nM in test [1] and 5 nM at rat CYP17 lyase. Besides, on rat CYP17 lyase, the inhibition at 0.1 µM was determined as 97%.

On to `Cc1cccc(N2CCN(c3cnccc3C)C2=O)c1` [Example 55A, 1-(4-Methyl-pyridin-3-yl)-3-m-tolyl-imidazolidin-2-one], for which the IC50 was determined as 9 nM in test [1] and 7 nM at rat CYP17 lyase.

In the case of `Cc1ccncc1N1CCN(c2cccc(C(F)(F)F)c2)C1=O` [Example 70A, 1-(4-Methyl-pyridin-3-yl)-3-(3-trifluoromethyl-phenyl)-imidazolidin-2-One], the IC50 in test [1] was determined as 6.5 nM; on rat CYP17 lyase it was 2 nM.

For the compound `COc1cc(N2CCN(c3cnccc3C)C2=O)ccn1` [Example 72A, 1-(2-Methoxy-pyridin-4-yl)-3-(4-methyl-pyridin-3-yl)-imidazolidin-2-one], the IC50 amounted to 9.4 nM in test [1] and 10 nM on rat CYP17 lyase.

With `Cc1ccncc1N1CCN(c2ccc3c(C)n[nH]c3c2)C1=O` [Example 102A, 1-(3-Methyl-1H-indazol-6-yl)-3-(4-methyl-pyridin-3-yl)-imidazolidin-2-one], the IC50 was 7.5 nM in test [1] and 5 nM at rat CYP17 lyase.

Take `COc1ccncc1N1CCN(c2ccc3ncsc3c2)C1=O` [Example 124A, 1-Benzothiazol-6-yl-3-(4-methoxy-pyridin-3-yl)-imidazolidin-2-one]: the IC50 in test [1] is 23 nM; at rat CYP17 lyase, 12 nM.
